Values of other authors in publication PMC8472685, “Nanocrystalline Suspensions of Irbesartan Enhance Oral Bioavailability by Improving Drug Solubility and Leading Endocytosis Uptake into the Intestine” (Pharmaceutics, 2021).

Columns and labels:
[1] = for Aqueous solubility of crystalline form: forms A and B
[2] = design: method as in PMID 9438775
patients = test system: patients; design: method as in PMID 9438776; conditions: 300 mg dose

Structure (SMILES) | Aqueous solubility of crystalline form [1] | BCS class ([1]; low aqueous solubility and high permeability) | Time of Cmax after oral administration [2] | Oral bioavailability (BA) ([2]; in patients) | Decrease in BP from baseline (patients) | Higher BP in treated compared to nontreated patients (so in the source) (patients)
CCCCC1=NC2(CCCC2)C(=O)N1Cc1ccc(-c2ccccc2-c2nnn[nH]2)cc1 [form A, irbesartan] | 11 µg/mL |  |  |  |  | 
CCCCC1=NC2(CCCC2)C(=O)N1Cc1ccc(-c2ccccc2-c2nnn[nH]2)cc1 [form B, irbesartan] | 0.6 µg/mL |  |  |  |  | 
CCCCC1=NC2(CCCC2)C(=O)N1Cc1ccc(-c2ccccc2-c2nnn[nH]2)cc1 [irbesartan] |  | BCS class II | 1.5 to 2 h | 60–80% | 10 mmHg | approximately 70%
